Experimental findings from patent US20220041616A1, “SPIRO COMPOUND AND MEDICAL USES THEREOF” (The National Institutes of Pharmaceutical R&D Co., Ltd., priority 2018, published 2022) are described below.

One experiment has as its target T1, ACC1 (Homo sapiens, UniProt Q13085).
T1 construct: purchased BPS bioscience
In words: In vitro inhibition of ACC1 activity, ADP-Glo Kinase Analysis. Format: biochemical. The conditions noted are these: 1 nM ACC1, 10 μM acetyl-CoA, 20 μM ATP. An outline of the steps:
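Enzyme was preincubated with compound for 15 min, then reacted for 30 min at room temperature in 5% DMSO, with ADP measured by ADP-Glo luminescence. ACC1: 1 nM, with 10 μM acetyl-CoA, 30 mM NaHCO3 and 20 μM ATP. ACC2: 1.1 nM, with 20 μM acetyl-CoA, 20 mM NaHCO3 and 15 μM ATP.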
In general terms: ADP-Glo turns the ADP formed in a reaction into a luminescent signal.

For the next experiment, the target named is ACC2 (Homo sapiens, UniProt O00763). In words: In vitro inhibition of ACC2 activity, ADP-Glo Kinase Analysis. Format: biochemical. The conditions noted are these: 1.1 nM ACC2, 20 μM acetyl-CoA, 15 μM ATP. The source says:
ADP-Glo™ Kinase Analysis Kit (Promega) is used for the in vitro analysis of the inhibitory effect of the present compound on ACC1 or ACC2. ADP-Glo™ Kinase Analysis is a kinase detection analysis of luminescence method. ADP is produced in the process of catalyzing the substrate by ACC. ADP is converted into ATP which is then converted into light by Ultra-Glo™ luciferase. ADP is quantified by detecting the light signal, thus the enzyme activity can be measured by quantification of the ADP amount produced during the enzyme reaction. The analysis is carried out in two steps: in the first step, after the kinase reaction, a portion of ADP-Glo™ reagent equal in volume to the kinase reaction system is added to terminate the reaction and consume the remaining ATP; in the second step, a kinase detection reagent is added, which not only converts ADP into ATP, but also uses a coupled luciferase/luciferin reaction to detect newly synthesized ATP.
a. 10 mM compound stock solution (the present compound was dissolved in 100% DMSO to prepare the 10 mM stock solution) was diluted 50-fold to 200 μM with 100% DMSO, and then diluted in equal proportions (1:3) in a 96-well dilution plate (249944, Nunc). The gradient concentrations of the compound were 200 μM, 66.67 μM, 22.22 μM, 7.41 μM, 2.47 μM, 0.823 μM, 0.274 μM, 0.0914 μM, 0.0305 μM, 0.0102 μM, 0.00339 μM and 0.00113 μM.
b. 4.5 μL ACC1 working solution (BPS bioscience) (2.22 nM) was added to each well of a 384-well test plate (6007290, Perkin Elmer).
c. 0.5 μL of the serially diluted compound (prepared in step a) was added to each well of the 384-well test plate, which was centrifuged at 1000 rpm for 1 min and then incubated at room temperature for 15 min. […]
g. The chemiluminescence signal was detected with Perkin Elmer EnVision 2104. […]
The average value of the positive and negative control well and the standard deviation were calculated. The inhibition percentage was calculated according to the following formula: 100×[1−(compound−average value of positive control)/(average value of negative control-average value of positive control)]. […]

The next experiment concerns HepG2 cells. In words: In vitro inhibition of proliferation of HepG2 cells, CellTiter-Glo. The class given is cell-based, human. The conditions noted are these: 3 days incubation, top concentration 30 μM. The source says:
CellTiter-Glo Analysis Kit (Promega) was used for the detection of the inhibitory effect of the present compound on the proliferation of HepG2 cells. The CellTiter-Glo detection method uses luciferase, which requires ATP for its reaction and luminescence. The intensity of the luminescent signal depends on the amount of ATP, and the amount of ATP depends on the number of living cells. Said analysis only requires that ATP in living cells is converted to luminescence by UltraGlo™ luciferase after treatment with the tested drug, so that the inhibitory effect of the compound is detected based on the luminescence intensity, and its IC50 value is calculated.
a. HepG2 cells were purchased from the American type culture collection (ATCC) resource bank. Cells were cultured in MEM (GIBCO) containing 10% fetal bovine serum, penicillin (100 units/mL) and streptomycin (100 μg/mL), and then incubated in a 37° C. incubator containing 5% carbon dioxide, and passaged once every 2 to 3 days.
b. On the first day, 800 HepG2 cells were inoculated in each well of a 384-well cell culture plate, and then incubated in a 37° C. incubator containing 5% carbon dioxide.
c. On the second day, the medium was changed to that containing the compound. The concentrations of the compound were 30 μM, 10 μM, 3.33 μM, 1.11 μM, 0.37 μM, 0.123 μM, 0.0411 μM, 0.0137 μM, 0.00457 μM and 0.00152 μM. The final concentration of DMSO was 0.3% (v/v). The plate was incubated for 3 days in a incubator containing 5% carbon dioxide at 37° C. The reaction system with paclitaxel at a final concentration of 1 μM was used as positive control; the reaction system with no compound but DMSO at a final concentration of 0.3% was used as negative control.
d. […]
f. The chemiluminescence signal value was read with Envision 2104 instrument.
The average value of the positive and negative control well and the standard deviation were calculated. The percentage inhibition rate was calculated according to the following formula: 100×[1−(compound−average value of positive control)/(average value of negative control−average value of positive control)]. […]

Sequence of ACC2 (O00763 whole entry): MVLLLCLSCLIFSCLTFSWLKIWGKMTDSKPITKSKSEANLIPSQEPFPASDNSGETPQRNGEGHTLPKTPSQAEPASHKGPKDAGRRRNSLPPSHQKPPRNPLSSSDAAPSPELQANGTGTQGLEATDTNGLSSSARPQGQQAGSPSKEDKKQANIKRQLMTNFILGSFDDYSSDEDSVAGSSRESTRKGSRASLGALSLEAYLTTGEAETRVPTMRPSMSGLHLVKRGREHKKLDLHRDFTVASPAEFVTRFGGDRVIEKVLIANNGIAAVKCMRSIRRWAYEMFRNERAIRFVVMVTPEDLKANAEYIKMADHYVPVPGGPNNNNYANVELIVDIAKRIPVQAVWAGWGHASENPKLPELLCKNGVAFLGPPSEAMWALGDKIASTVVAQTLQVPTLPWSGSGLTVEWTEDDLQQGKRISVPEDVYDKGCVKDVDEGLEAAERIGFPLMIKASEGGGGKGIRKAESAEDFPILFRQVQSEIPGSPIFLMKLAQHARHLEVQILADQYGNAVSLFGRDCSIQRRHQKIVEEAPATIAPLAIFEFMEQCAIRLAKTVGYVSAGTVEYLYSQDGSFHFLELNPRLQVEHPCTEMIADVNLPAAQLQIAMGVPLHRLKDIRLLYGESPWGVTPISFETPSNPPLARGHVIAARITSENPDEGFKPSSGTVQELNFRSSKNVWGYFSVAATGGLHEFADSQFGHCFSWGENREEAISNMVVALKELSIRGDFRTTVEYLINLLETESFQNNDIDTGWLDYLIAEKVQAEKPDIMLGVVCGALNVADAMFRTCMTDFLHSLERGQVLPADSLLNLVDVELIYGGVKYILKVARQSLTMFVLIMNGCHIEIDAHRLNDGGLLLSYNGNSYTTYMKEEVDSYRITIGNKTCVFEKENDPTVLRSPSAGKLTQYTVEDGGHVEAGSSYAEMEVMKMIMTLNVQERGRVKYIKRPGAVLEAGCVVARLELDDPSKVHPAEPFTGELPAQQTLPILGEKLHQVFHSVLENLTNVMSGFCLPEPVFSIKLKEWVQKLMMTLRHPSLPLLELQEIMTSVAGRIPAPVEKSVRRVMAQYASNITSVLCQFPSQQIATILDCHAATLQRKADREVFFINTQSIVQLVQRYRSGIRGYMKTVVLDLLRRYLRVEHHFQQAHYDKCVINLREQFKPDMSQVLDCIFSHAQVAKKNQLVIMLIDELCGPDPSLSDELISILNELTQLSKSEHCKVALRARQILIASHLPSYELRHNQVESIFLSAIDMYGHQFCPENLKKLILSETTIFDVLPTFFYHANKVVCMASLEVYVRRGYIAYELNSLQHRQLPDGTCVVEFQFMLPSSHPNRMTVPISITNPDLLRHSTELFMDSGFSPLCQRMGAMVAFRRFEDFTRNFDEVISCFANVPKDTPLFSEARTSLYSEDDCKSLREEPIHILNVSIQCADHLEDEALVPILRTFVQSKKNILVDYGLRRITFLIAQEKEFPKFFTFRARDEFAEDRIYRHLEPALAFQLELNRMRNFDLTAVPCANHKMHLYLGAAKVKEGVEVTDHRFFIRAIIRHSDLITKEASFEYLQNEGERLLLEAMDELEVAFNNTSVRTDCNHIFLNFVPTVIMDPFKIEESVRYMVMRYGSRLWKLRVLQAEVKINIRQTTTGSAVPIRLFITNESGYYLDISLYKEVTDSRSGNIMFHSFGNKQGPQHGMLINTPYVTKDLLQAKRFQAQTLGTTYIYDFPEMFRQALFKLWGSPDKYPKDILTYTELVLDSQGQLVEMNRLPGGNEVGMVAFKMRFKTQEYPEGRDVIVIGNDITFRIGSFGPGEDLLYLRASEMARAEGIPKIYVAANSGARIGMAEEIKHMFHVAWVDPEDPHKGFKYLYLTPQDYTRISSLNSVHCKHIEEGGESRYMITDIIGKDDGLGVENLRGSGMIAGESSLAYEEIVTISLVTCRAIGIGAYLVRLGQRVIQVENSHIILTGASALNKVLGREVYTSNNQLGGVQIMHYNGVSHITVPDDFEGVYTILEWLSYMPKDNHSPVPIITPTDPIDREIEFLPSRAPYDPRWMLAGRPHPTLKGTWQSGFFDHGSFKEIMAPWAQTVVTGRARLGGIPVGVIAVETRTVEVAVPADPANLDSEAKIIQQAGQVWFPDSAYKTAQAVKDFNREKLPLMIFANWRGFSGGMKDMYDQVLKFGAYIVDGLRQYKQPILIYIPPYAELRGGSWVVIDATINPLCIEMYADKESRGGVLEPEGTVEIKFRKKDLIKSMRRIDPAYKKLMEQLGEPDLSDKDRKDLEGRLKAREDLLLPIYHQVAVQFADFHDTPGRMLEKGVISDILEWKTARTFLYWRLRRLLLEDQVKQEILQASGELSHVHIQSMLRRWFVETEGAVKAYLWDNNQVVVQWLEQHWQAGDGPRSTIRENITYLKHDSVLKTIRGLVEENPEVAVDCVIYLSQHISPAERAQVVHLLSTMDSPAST

For orientation: IC50 means the midpoint of a concentration-inhibition curve. Read a low IC50 as inhibition by little substance. Turning to `COc1ccccc1C(CN1C(=O)C2(CCC(C(=O)O)C2)C(=O)c2c1sc(-c1ncco1)c2C)OC1CCOCC1` (single isomer, unassigned) [Compound 5b, 7′-(2-(2-methoxyphenyl)-2-((tetrahydro-2H-pyran-4-yl)oxy)ethyl)-3′-methyl-2′-(oxazol-2-yl)-4′,6′-dioxo-6′,7′-dihydro-4′H-spiro[cyclopentane-1,5′-thieno[2,3-b]pyridine]-3-carboxylic Acid], the IC50 on ACC1 and against ACC2 was below 10 nM throughout.
Regarding `COc1ccccc1C(CN1C(=O)C2(CCC(C(=O)O)C2)C(=O)c2c1sc(-c1ncco1)c2C)OC1CCOCC1` (mixture of isomers) [Compound 5x, 7′-(2-(2-methoxyphenyl)-2-((tetrahydro-2H-pyran-4-yl)oxy)ethyl)-3′-methyl-2′-(oxazol-2-yl)-4′,6′-dioxo-6′,7′-dihydro-4′H-spiro[cyclopentane-1,5′-thieno[2,3-b]pyridine]-3-carboxylic Acid], the IC50 against ACC1 was below 10 nM; in the experiment on HepG2 cells (Homo sapiens, HepG2, 72 h), above 30 µM.
On to `COc1ccccc1C(CN1C(=O)C2(CCC(C(=O)O)C2)C(=O)c2c1sc(-c1ncco1)c2C)OC1CCOCC1` (mixture of isomers) [Compound 5y, 7′-(2-(2-methoxyphenyl)-2-((tetrahydro-2H-pyran-4-yl)oxy)ethyl)-3′-methyl-2′-(oxazol-2-yl)-4′,6′-dioxo-6′,7′-dihydro-4′H-spiro[cyclopentane-1,5′-thieno[2,3-b]pyridine]-3-carboxylic Acid], for which the results for the IC50 against ACC1 and with HepG2 cells were below 10 nM and above 30 µM, respectively.
Turning to `COc1ccccc1[C@H](CN1c2sc(-c3ncco3)c(C)c2C(=O)[C@]2(C[C@H](C(=O)O)C2)C1=O)OC1CCOCC1` [Compound 8c, 7′-(2-(2-methoxyphenyl)-2-((tetrahydro-2H-pyran-4-yl)oxy)ethyl)-3′-methyl-2′-(oxazol-2-yl)-4′,6′-dioxo-6′,7′-dihydro-4′H-spiro[cyclobutane-1,5′-thieno[2,3-b]pyridine]-3-carboxylic Acid], the IC50 at ACC1 and against ACC2 was below 10 nM in each case.
As to `COc1ccccc1C(CN1C(=O)C2(CC(C(=O)O)C2)C(=O)c2c1sc(-c1ncco1)c2C)OC1CCOCC1` (single isomer, unassigned) [Compound 8d, 7′-(2-(2-methoxyphenyl)-2-((tetrahydro-2H-pyran-4-yl)oxy)ethyl)-3′-methyl-2′-(oxazol-2-yl)-4′,6′-dioxo-6′,7′-dihydro-4′H-spiro[cyclobutane-1,5′-thieno[2,3-b]pyridine]-3-carboxylic Acid], the half-maximal inhibitory concentration (IC50) against ACC1 and at ACC2 was below 10 nM throughout.
Regarding `COc1ccccc1C(CN1C(=O)C2(CC(C(=O)O)C2)C(=O)c2c1sc(-c1ncco1)c2C)OC1CCOCC1` (mixture of isomers) [Compound 8, 7′-(2-(2-methoxyphenyl)-2-((tetrahydro-2H-pyran-4-yl)oxy)ethyl)-3′-methyl-2′-(oxazol-2-yl)-4′,6′-dioxo-6′,7′-dihydro-4′H-spiro[cyclobutane-1,5′-thieno[2,3-b]pyridine]-3-carboxylic Acid], the IC50 against ACC1 was below 10 nM; in the experiment with HepG2 cells (Homo sapiens, HepG2, 72 h), above 30 µM.
